Reference: ChEMBL document CHEMBL1157637, “Potent DNA-directed alkylating agents: Synthesis and biological activity of phenyl N-mustard-quinoline conjugates having a urea or hydrazinecarboxamide linker” (Bioorg Med Chem, 2010)
The source made the active and inactive calls. No cut-off for these calls is given here.

Assays:
[1] = test system: MCF7; assay: Cytotoxicity against human MCF7 cells after 72 hrs by alamar blue assay; assay type: functional, cell-based; conditions: MCF7, 72 h
[2] = test system: CCRF-CEM; assay: Cytotoxicity against taxol-resistant human CCRF-CEM cells after 72 hrs by XTT assay; assay type: functional, cell-based
[3] = test system: MX1; assay: Cytotoxicity against human MX1 cells after 72 hrs by SRB assay; assay type: functional, cell-based; conditions: MX1, 72 h
[4] = test system: HCT-116; assay: Cytotoxicity against human HCT116 cells after 72 hrs by SRB assay; assay type: functional, cell-based; conditions: HCT-116, 72 h
[5] = Cytotoxicity against human CL1-0 cells after 72 hrs by alamar blue assay; assay type: functional, cell-based; conditions: CL1-0, 72 h
[6] = test system: CCRF-CEM; assay: Cytotoxicity against human CCRF-CEM cells after 72 hrs by XTT assay; assay type: functional, cell-based
[7] = test system: CCRF-CEM; assay: Selectivity ratio of IC50 for taxol-resistant human CCRF-CEM cells to IC50 for human CCRF-CEM cells; assay type: functional
[8] = test system: PC-3; assay: Cytotoxicity against human PC3 cells after 72 hrs by alamar blue assay; assay type: functional, cell-based; conditions: PC-3, 72 h
[9] = Cytotoxicity against human CL1-5 cells after 72 hrs by alamar blue assay; assay type: functional, cell-based; conditions: CL1-5, 72 h
[10] = test system: CCRF-CEM; assay: Selectivity ratio of IC50 for vinblastine-resistant human CCRF-CEM cells to IC50 for human CCRF-CEM cells; assay type: functional
[11] = Cytotoxicity against human H1299 cells after 72 hrs by alamar blue assay; assay type: functional, cell-based; conditions: NCI-H1299, 72 h
[12] = test system: CCRF-CEM; assay: Cytotoxicity against vinblastine-resistant human CCRF-CEM cells after 72 hrs by XTT assay; assay type: functional, cell-based
[13] = test system: Nucleic Acid; assay: Binding affinity to pEGFP-N1 DNA assessed as formation of interstrand cross-links with DNA by alkaline gel shift assay; assay type: nucleic-acid assay
[14] = test system: MX1; assay: Antitumor activity against human MX1 cells xenografted in nu/nu nude mouse assessed as complete tumor remission at 100 mg/kg, iv administered as injection in Q2D x 5 schedule measured on day 70; assay type: functional, organism-based; set-up: dose 100 mg/kg
[15] = test system: Mus musculus; assay: Toxicity in nu/nu nude mouse assessed as body weight loss at 100 mg/kg, iv administered as injection in Q2D x 5 schedule measured on day 16; assay type: organism-based; set-up: dose 100 mg/kg, route intravenous; conditions: in vivo
[16] = test system: MX1; assay: Antitumor activity against human MX1 cells xenografted in nu/nu nude mouse assessed as complete tumor remission at 100 mg/kg, iv administered as injection in Q2D x 5 schedule measured on day 18; assay type: functional, organism-based; set-up: dose 100 mg/kg
[17] = test system: Nucleic Acid; assay: Binding affinity to DNA in human H1299 cells assessed as formation of DNA cross-links at 200 uM followed by irradiation by modified single cell gel electrophoresis comet assay; assay type: cell-based

Structure (SMILES)	IC50 [1] [µM]	IC50 [2] [µM]	IC50 [3] [µM]	IC50 [4] [µM]	IC50 [5] [µM]	IC50 [6] [µM]	Ratio IC50 [7]	IC50 [8] [µM]	IC50 [9] [µM]	Ratio IC50 [10]	IC50 [11] [µM]	IC50 [12] [µM]	Activity [13]	Activity [14]	Activity [15] [%]	Activity [16]	Activity [17] [%]
Cc1cc(NC(=O)Nc2ccc(N(CCCl)CCCl)cc2)c2cc3c(cc2n1)OCO3	4.91	0.605	0.584	0.402	6.23	0.279	2.2	5.96	7.27	2.3	5.44	0.652	–	–	–	–	–
CC(=O)O[C@H]1C(=O)[C@@]2(C)[C@H]([C@H](OC(=O)c3ccccc3)[C@]3(O)C[C@H](OC(=O)[C@H](O)[C@@H](NC(=O)c4ccccc4)c4ccccc4)C(C)=C1C3(C)C)[C@]1(OC(C)=O)CO[C@@H]1C[C@@H]2O [PACLITAXEL]	–	–	–	–	–	–	330	–	–	980	–	–	–	–	–	–	–
O=C(NNc1ccc(N(CCCl)CCCl)cc1)Nc1cc(-c2ccccc2)nc2ccccc12	6.24	0.908	1.78	1.26	4.07	0.578	1.57	10.5	3.01	2.11	4.38	1.22	Active	–	–	–	–
O=C(Nc1ccc(N(CCCl)CCCl)cc1)Nc1cc(-c2ccccc2F)nc2cc3c(cc12)OCO3	–	2.61	13.1	25.4	–	3.09	0.84	–	–	0.76	–	2.35	–	–	–	–	–
Cc1cc(NC(=O)Nc2ccc(N(CCCl)CCCl)cc2)c2cc(N3CCCC3)ccc2n1	–	16.9	16.6	13.4	–	9.02	1.87	–	–	1.43	–	12.9	–	–	–	–	–
COc1ccc2nc(C)cc(NC(=O)Nc3ccc(N(CCCl)CCCl)cc3)c2c1	5.19	0.313	0.645	0.83	5.58	0.309	1	3.15	5.33	1.5	1.31	0.458	–	–	–	–	–
Cc1cc(NC(=O)Nc2ccc(N(CCCl)CCCl)cc2)c2cc(N(C)C)ccc2n1	2.13	0.308	0.184	0.3	1.73	0.107	2.9	2	2.52	2.3	0.714	0.242	–	–	–	–	–
O=C(Nc1ccc(N(CCCl)CCCl)cc1)Nc1cc(-c2ccccc2)nc2ccccc12	–	1.46	3.47	7.79	–	1.69	0.87	–	–	0.99	–	1.66	–	–	–	–	–
COc1cccc(-c2cc(NC(=O)Nc3ccc(N(CCCl)CCCl)cc3)c3cc(N4CCCC4)ccc3n2)c1	6.93	2.23	265	168	7.09	102	0.02	11.1	9.49	7.58	3.81	774	–	–	–	–	–
COc1cccc(-c2cc(NC(=O)Nc3ccc(N(CCCl)CCCl)cc3)c3cc4c(cc3n2)OCO4)c1	–	1.96	20.6	8.87	–	2.82	0.7	–	–	0.79	–	2.22	–	–	–	–	–
COc1cccc(-c2cc(NC(=O)NNc3ccc(N(CCCl)CCCl)cc3)c3cc(N4CCCC4)ccc3n2)c1	5.46	0.568	1.32	0.643	2.92	0.354	1.6	3.34	5.87	2.35	0.945	0.833	–	–	–	–	–
COc1cccc(-c2cc(NC(=O)NNc3ccc(N(CCCl)CCCl)cc3)c3cc4c(cc3n2)OCO4)c1	3.35	0.734	0.749	1.37	2.87	0.209	3.51	2.98	4.85	5.43	2.05	1.13	–	–	–	–	–
CC[C@]1(O)C[C@@H]2CN(CCc3c([nH]c4ccccc34)[C@@](C(=O)OC)(c3cc4c(cc3OC)N(C)[C@H]3[C@@](O)(C(=O)OC)[C@H](OC(C)=O)[C@]5(CC)C=CCN6CC[C@]43[C@@H]65)C2)C1 [VINBLASTINE]	–	–	–	–	–	–	106.2	–	–	679.5	–	–	–	–	–	–	–
COc1cccc(-c2cc(NC(=O)Nc3ccc(N(CCCl)CCCl)cc3)c3cc(Cl)ccc3n2)c1	–	1.1	2.25	4.88	–	1.88	0.59	–	–	0.55	–	1.03	–	–	–	–	–
O=C(NNc1ccc(N(CCCl)CCCl)cc1)Nc1cc(-c2ccccc2F)nc2cc3c(cc12)OCO3	1.82	2.98	42.6	6.48	3.47	1.42	2.09	4.77	2.65	2.23	0.491	3.17	–	–	–	–	–
O=C(NNc1ccc(N(CCCl)CCCl)cc1)Nc1cc(-c2ccccc2)nc2cc3c(cc12)OCO3	–	0.574	1.02	2.02	–	0.258	2.22	–	–	1.92	–	0.495	–	–	–	–	–
COc1cccc(-c2cc(NC(=O)NNc3ccc(N(CCCl)CCCl)cc3)c3cc(Cl)ccc3n2)c1	–	2.25	14.6	13.9	–	0.732	3.08	–	–	2.91	–	2.13	–	–	–	–	–
COc1cccc(-c2cc(NC(=O)Nc3ccc(N(CCCl)CCCl)cc3)c3cc(OC)ccc3n2)c1	3.04	0.588	1.83	3.69	4.73	0.362	1.62	5.88	3.82	1.53	5.69	0.557	–	Active	13	Active	–
O=C(Nc1ccc(N(CCCl)CCCl)cc1)Nc1cc(-c2ccccc2F)nc2ccc(N3CCCC3)cc12	–	39.9	115	44.2	–	7.65	5.22	–	–	1.62	–	12.4	–	–	–	–	–
O=C(NNc1ccc(N(CCCl)CCCl)cc1)Nc1cc(-c2ccccc2F)nc2ccc(N3CCCC3)cc12	1	0.261	2.26	0.192	0.694	0.152	1.72	0.954	0.511	2.05	0.604	0.312	–	–	–	–	–
COc1cccc(-c2cc(NC(=O)NNc3ccc(N(CCCl)CCCl)cc3)c3cc(OC)ccc3n2)c1	15.4	2.15	3.46	3.44	11.7	0.552	3.9	6.45	11	2.94	5.99	1.62	Active	–	–	–	–
N[C@@H](Cc1ccc(N(CCCl)CCCl)cc1)C(=O)O	–	–	–	–	–	–	–	–	–	–	–	–	–	–	–	–	39.7
O=C(Nc1ccc(N(CCCl)CCCl)cc1)Nc1cc(-c2ccccc2)nc2cc3c(cc12)OCO3	–	2.23	7.41	9.92	–	2.25	0.99	–	–	0.82	–	1.84	–	–	–	–	–
